Results: US10314823B2, “Substituted 1,2-dihydro-3H-pyrrolo[1,2-c]imidazol-3-one antibacterial compounds” (IDORSIA PHARMACEUTICALS LTD, priority 2015, dated 2019)
Values after ≈ are worked out from the molar mass of the structure shown.

Tests used:
Test in all cases: Bacterial growth minimal inhibitory concentration (CLSI broth microdilution)
Format in all cases: cell-based
[1] = test system: K. pneumoniae A-651; details: Klebsiella pneumoniae, A651; multiply resistant strain (in particular quinolone-resistant); cation-adjusted Mueller-Hinton Broth
How it was run: (§1)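 Broth microdilution in cation-adjusted Mueller-Hinton broth following CLSI M7-A7. MICs are expressed in mg/L. K. pneumoniae A-651 is multiply resistant, including to quinolones; the E. coli and P. aeruginosa strains are quinolone-sensitive.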

[2] = test system: P. aeruginosa ATCC27853; details: Pseudomonas aeruginosa, ATCC27853; quinolone-sensitive strain; cation-adjusted Mueller-Hinton Broth
How it was run: as §1

[3] = test system: E. coli ATCC25922; details: Escherichia coli, ATCC25922; quinolone-sensitive strain; cation-adjusted Mueller-Hinton Broth
How it was run: as §1

SMILES	MIC [1] [µg/mL]	MIC [2] [µg/mL]	MIC [3] [µg/mL]
[2H]C([2H])N1CC(C#CC#Cc2cc3n(c2)C(=O)N(CC[C@](C)(C(=O)NO)S(C)(=O)=O)C3)C1 [Example 52, (2R)—N-hydroxy-2-methyl-4-(6-((1-(methyl-d2)azetidin-3-yl)buta-1,3-diyn-1-yl)-3-oxo-1H-pyrrolo[1,2-c]imidazol-2(3H)-yl)-2-(methylsulfonyl)butanamide]	0.5 (≈ 1.15 µM)	0.5 (≈ 1.15 µM)	0.5 (≈ 1.15 µM)
C[C@@](CCN1Cc2cc(C#CC#C[C@@H]3C[C@H](F)CN3)cn2C1=O)(C(=O)NO)S(C)(=O)=O.Cl [Example 53, (2R)-4-(6-(((2S,4S)-4-fluoropyrrolidin-2-yl)buta-1,3-diyn-1-yl)-3-oxo-1H-pyrrolo[1,2-c]imidazol-2(3H)-yl)-N-hydroxy-2-methyl-2-(methylsulfonyl)butanamide hydrochloride]	4	4	4
CCN1CC(C#CC#Cc2cc3n(c2)C(=O)N(CC[C@](C)(C(=O)NO)S(C)(=O)=O)C3)C1 [Example 54, (2R)-4-(6-((1-ethylazetidin-3-yl)buta-1,3-diyn-1-yl)-3-oxo-1H-pyrrolo[1,2-c]imidazol-2(3H)-yl)-N-hydroxy-2-methyl-2-(methylsulfonyl)butanamide]	0.5 (≈ 1.12 µM)	0.5 (≈ 1.12 µM)	0.25 (≈ 0.56 µM)
C[C@@](CCN1Cc2cc(C#CC#CC3CN(CC4CC4)C3)cn2C1=O)(C(=O)NO)S(C)(=O)=O [Example 55, (2R)-4-(6-((1-(cyclopropylmethyl)azetidin-3-yl)buta-1,3-diyn-1-yl)-3-oxo-1H-pyrrolo[1,2-c]imidazol-2(3H)-yl)-N-hydroxy-2-methyl-2-(methylsulfonyl)butanamide]	0.25 (≈ 0.529 µM)	1 (≈ 2.12 µM)	0.125 (≈ 0.265 µM)
C[C@@](CCN1Cc2cc(C#CC#C[C@H]3C[C@@H]3[C@@H](O)CO)cn2C1=O)(C(=O)NO)S(C)(=O)=O [Example 56, (2R)-4-(6-(((1S,2S)-2-((R)-1,2-dihydroxyethyl)cyclopropyl)buta-1,3-diyn-1-yl)-3-oxo-1H-pyrrolo[1,2-c]imidazol-2(3H)-yl)-N-hydroxy-2-methyl-2-(methylsulfonyl)butanamide]	1 (≈ 2.16 µM)	0.5 (≈ 1.08 µM)	0.25 (≈ 0.539 µM)
C[C@@](CCN1Cc2cc(C#CC#CC3CN(C4CC4)C3)cn2C1=O)(C(=O)NO)S(C)(=O)=O [Example 57, (2R)-4-(6-((1-cyclopropylazetidin-3-yl)buta-1,3-diyn-1-yl)-3-oxo-1H-pyrrolo[1,2-c]imidazol-2(3H)-yl)-N-hydroxy-2-methyl-2-(methylsulfonyl)butanamide]	0.5 (≈ 1.09 µM)	0.063 (≈ 0.137 µM)	0.125 (≈ 0.273 µM)
C[C@@](CCN1Cc2cc(C#CC#CC3CN(CC(F)(F)F)C3)cn2C1=O)(C(=O)NO)S(C)(=O)=O [Example 58, (2R)—N-hydroxy-2-methyl-2-(methylsulfonyl)-4-(3-oxo-6-((1-(2,2,2-trifluoroethyl)azetidin-3-yl)buta-1,3-diyn-1-yl)-1H-pyrrolo[1,2-c]imidazol-2(3H)-yl)butanamide]	4 (≈ 7.99 µM)	0.25 (≈ 0.5 µM)	0.5 (≈ 0.999 µM)
[2H]CN1CC(C#CC#Cc2cc3n(c2)C(=O)N(CC[C@](C)(C(=O)NO)S(C)(=O)=O)C3)C1 [Example 60, (2R)—N-hydroxy-2-methyl-4-(6-((1-(methyl-d)azetidin-3-yl)buta-1,3-diyn-1-yl)-3-oxo-1H-pyrrolo[1,2-c]imidazol-2(3H)-yl)-2-(methylsulfonyl)butanamide]	0.5 (≈ 1.15 µM)	0.5 (≈ 1.15 µM)	0.5 (≈ 1.15 µM)
C[C@@](CCN1Cc2cc(C#CC#CC3CN(CCF)C3)cn2C1=O)(C(=O)NO)S(C)(=O)=O [Example 61, (2R)-4-(6-((1-(2-fluoroethyl)azetidin-3-yl)buta-1,3-diyn-1-yl)-3-oxo-1H-pyrrolo[1,2-c]imidazol-2(3H)-yl)-N-hydroxy-2-methyl-2-(methylsulfonyl)butanamide]	0.5 (≈ 1.08 µM)	0.5 (≈ 1.08 µM)	0.063 (≈ 0.136 µM)
C[C@@](CCN1Cc2cc(C#CC#CC3CN(C4CCC4)C3)cn2C1=O)(C(=O)NO)S(C)(=O)=O [Example 62, (2R)-4-(6-((1-cyclobutylazetidin-3-yl)buta-1,3-diyn-1-yl)-3-oxo-1H-pyrrolo[1,2-c]imidazol-2(3H)-yl)-N-hydroxy-2-methyl-2-(methylsulfonyl)butanamide]	0.125 (≈ 0.265 µM)	1 (≈ 2.12 µM)	0.125 (≈ 0.265 µM)
C[C@@](CCN1Cc2cc(C#CC#CC3CN(C4CS(=O)(=O)C4)C3)cn2C1=O)(C(=O)NO)S(C)(=O)=O [Example 63, (2R)-4-(6-((1-(1,1-dioxidothietan-3-yl)azetidin-3-yl)buta-1,3-diyn-1-yl)-3-oxo-1H-pyrrolo[1,2-c]imidazol-2(3H)-yl)-N-hydroxy-2-methyl-2-(methylsulfonyl)butanamide]	2 (≈ 3.83 µM)	4 (≈ 7.65 µM)	1 (≈ 1.91 µM)
C[C@@](CCN1Cc2cc(C#CC#CC3CN(CCCO)C3)cn2C1=O)(C(=O)NO)S(C)(=O)=O [Example 64, (2R)—N-hydroxy-4-(6-((1-(3-hydroxypropyl)azetidin-3-yl)buta-1,3-diyn-1-yl)-3-oxo-1H-pyrrolo[1,2-c]imidazol-2(3H)-yl)-2-methyl-2-(methylsulfonyl)butanamide]	1 (≈ 2.1 µM)	0.5 (≈ 1.05 µM)	0.25 (≈ 0.525 µM)
CN1CC(C)(C#CC#Cc2cc3n(c2)C(=O)N(CC[C@](C)(C(=O)NO)S(C)(=O)=O)C3)C1 [Example 65, (2R)-4-(6-((1,3-dimethylazetidin-3-yl)buta-1,3-diyn-1-yl)-3-oxo-1H-pyrrolo[1,2-c]imidazol-2(3H)-yl)-N-hydroxy-2-methyl-2-(methylsulfonyl)butanamide]	1 (≈ 2.24 µM)	1 (≈ 2.24 µM)	1 (≈ 2.24 µM)
C[C@@](CCN1Cc2cc(C#CC#CC3(F)CN(CCO)C3)cn2C1=O)(C(=O)NO)S(C)(=O)=O [Example 66, (2R)-4-(6-((3-fluoro-1-(2-hydroxyethyl)azetidin-3-yl)buta-1,3-diyn-1-yl)-3-oxo-1H-pyrrolo[1,2-c]imidazol-2(3H)-yl)-N-hydroxy-2-methyl-2-(methylsulfonyl)butanamide]	1 (≈ 2.08 µM)	2 (≈ 4.16 µM)	0.5 (≈ 1.04 µM)
C[C@@](CCN1Cc2cc(C#CC#CC3CN(CC(CO)CO)C3)cn2C1=O)(C(=O)NO)S(C)(=O)=O [Example 67, (2R)—N-hydroxy-4-(6-((1-(3-hydroxy-2-(hydroxymethyl)propyl)azetidin-3-yl)buta-1,3-diyn-1-yl)-3-oxo-1H-pyrrolo[1,2-c]imidazol-2(3H)-yl)-2-methyl-2-(methylsulfonyl)butanamide]	2 (≈ 3.95 µM)	1 (≈ 1.97 µM)	2 (≈ 3.95 µM)
C[C@@](CCN1Cc2cc(C#CC#CC3CN(CC(F)F)C3)cn2C1=O)(C(=O)NO)S(C)(=O)=O [Example 68, (2R)-4-(6-((1-(2,2-difluoroethyl)azetidin-3-yl)buta-1,3-diyn-1-yl)-3-oxo-1H-pyrrolo[1,2-c]imidazol-2(3H)-yl)-N-hydroxy-2-methyl-2-(methylsulfonyl)butanamide]	0.25 (≈ 0.518 µM)	1 (≈ 2.07 µM)	0.063 (≈ 0.131 µM)
C[C@@](CCN1Cc2cc(C#CC#CC3CN(C4CC(O)C4)C3)cn2C1=O)(C(=O)NO)S(C)(=O)=O (stereo partly drawn) [Example 69, (2R)—N-hydroxy-4-(6-((1-(3-hydroxycyclobutyl)azetidin-3-yl)buta-1,3-diyn-1-yl)-3-oxo-1H-pyrrolo[1,2-c]imidazol-2(3H)-yl)-2-methyl-2-(methylsulfonyl)butanamide]	0.5 (≈ 1.02 µM)	0.5 (≈ 1.02 µM)	0.25 (≈ 0.512 µM)
C[C@@](CCN1Cc2cc(C#CC#CC3CN(C4CCCCC4)C3)cn2C1=O)(C(=O)NO)S(C)(=O)=O [Example 70, (2R)-4-(6-((1-cyclohexylazetidin-3-yl)buta-1,3-diyn-1-yl)-3-oxo-1H-pyrrolo[1,2-c]imidazol-2(3H)-yl)-N-hydroxy-2-methyl-2-(methylsulfonyl)butanamide]	0.25 (≈ 0.499 µM)	0.5 (≈ 0.999 µM)	0.125 (≈ 0.25 µM)
C[C@@](CCN1Cc2cc(C#CC#CC3CN(C4CCCC4)C3)cn2C1=O)(C(=O)NO)S(C)(=O)=O [Example 73, (2R)-4-(6-((1-cyclopentylazetidin-3-yl)buta-1,3-diyn-1-yl)-3-oxo-1H-pyrrolo[1,2-c]imidazol-2(3H)-yl)-N-hydroxy-2-methyl-2-(methylsulfonyl)butanamide]	0.25 (≈ 0.514 µM)	1 (≈ 2.06 µM)	0.5 (≈ 1.03 µM)
C[C@@](CCN1Cc2cc(C#CC#CC3CN(C4CCOCC4)C3)cn2C1=O)(C(=O)NO)S(C)(=O)=O [Example 74, (2R)—N-hydroxy-2-methyl-2-(methylsulfonyl)-4-(3-oxo-6-((1-(tetrahydro-2H-pyran-4-yl)azetidin-3-yl)buta-1,3-diyn-1-yl)-1H-pyrrolo[1,2-c]imidazol-2(3H)-yl)butanamide]	0.25 (≈ 0.497 µM)	1 (≈ 1.99 µM)	0.25 (≈ 0.497 µM)
C[C@@](CCN1Cc2cc(C#CC#CC3CN(C4CSC4)C3)cn2C1=O)(C(=O)NO)S(C)(=O)=O [Example 75, (2R)—N-hydroxy-2-methyl-2-(methylsulfonyl)-4-(3-oxo-6-((1-(thietan-3-yl)azetidin-3-yl)buta-1,3-diyn-1-yl)-1H-pyrrolo[1,2-c]imidazol-2(3H)-yl)butanamide]	0.125 (≈ 0.255 µM)	2 (≈ 4.08 µM)	0.063 (≈ 0.128 µM)
CCC1(C#CC#Cc2cc3n(c2)C(=O)N(CC[C@](C)(C(=O)NO)S(C)(=O)=O)C3)CN(C)C1 [Example 79, (2R)-4-(6-((3-ethyl-1-methylazetidin-3-yl)buta-1,3-diyn-1-yl)-3-oxo-1H-pyrrolo[1,2-c]imidazol-2(3H)-yl)-N-hydroxy-2-methyl-2-(methylsulfonyl)butanamide]	2 (≈ 4.34 µM)	4 (≈ 8.69 µM)	2 (≈ 4.34 µM)
